Experimental data published in ChEMBL document CHEMBL3430912, “GSK Tres Cantos Anti-Kinetoplastid Screening (TCAKS) Data”.

Columns and labels:
[1] = system: Leishmania donovani; test: GSK_TCAKS: pIC50 Leishmania donovani Imaging: THP-1 Host Macrophages. Assay plates (384-well) were prepared by adding 250nL of compound to each well. For single shot assay, the final compound concentration was 5 uM. […] Automated image analysis was performed with a script developed on Acapella High Content Imaging and Analysis Software (PerkinElmer). Output: THP-1 cell count were reported for each well.; assay type: functional, organism-based, Homo sapiens
[2] = GSK_TCAKS: pIC50 HepG2 human cell line viability assay using luminiscence. […] Seeding density was checked to ensure that new mono-layers were not more than 50% confluent at the time of harvesting. Cell suspension was added to 500 mL of the same medium at a final density of 1.2 * 10^5 cells/mL. This cell suspension was dispensed (25 uL, 3000 cells per well) into 384-well clear-bottom plates using a Multidrop Combi dispenser. Prior to addition of the cell suspension, the screening compounds (250 nL) were pre-dispensed into the plates with an Echo liquid handler. Plates were incubated for 48 h at 37C, 5% CO2. After incubation, plates equilibrated at room temperature for 30 min before proceeding to develop the luminescent signal. The signal developer, CellTiter-Glo Reagent, was allowed to equilibrate at room temperature for 30 min and added to the plates (25uL per well) using a Multidrop Combi dispenser. Plates were left for 10 min at room temperature for stabilization and then read using a ViewLux.; assay type: toxicity, cell-based
[3] = system: Leishmania donovani; test: GSK_TCAKS: pIC50 Leishmania donovani viability assay using fluorescence intensity. Assay plates (1536-well) were prepared by adding 30nL per well of compound. For single shot assay, the final compound concentration was 5uM. […] Briefly, eGFP LdBOB axenic amastigotes were harvested, fixed and counted in a CASY cell counter (Roche-Applied Science). A final concentration of 1.5 * 10^5 cells per well were prepared in amastigote media containing 500 U/mL penicillin/streptomycin (Invitrogen) and 6uL was dispensed to each experimental well using a Multidrop Combi dispenser (Thermo Scientific). 6uL of assay media was dispensed to control columns used as reference for 100% compound response. Following incubation for 72 h at 37C, 5% CO2, 2 uL of resazurin was added to each well at a final concentration of 0.5 mM in phosphate buffered saline (PBS) with IGEPAL (Sigma-Aldrich), 0.05% (v/v).; assay type: functional, organism-based
[4] = system: Trypanosoma brucei brucei; test: GSK_TCAKS: pIC50 Trypanosoma brucei viability assay using fluorescence intensity. Assay plates (1536-well) were prepared by dispensing 25nL of compound solution per well using an Echo acoustic dispenser (Labcyte).; assay type: functional, organism-based; settings: Lister 427, 2 h
[5] = system: NIH3T3; test: GSK_TCAKS: pIC50 NIH 3T3 cell line viability assay using luminiscence. Tissue culture surface treated assay plates (1536-well) were used. […] The 100% cells survival control was determined exposing the host-cells to a 0.5% DMSO concentration, whereas the 100% toxicity control was achieved by seeding the cells in presence of Amphotericin B at 50uM. Plates were incubated for four days at 37C, 5% CO2. The assay readout was developed by addition of 5uL of CellTiter-Glo Reagent following the manufacturer's instructions. Luminiscence was measured using a ViewLux.; assay type: functional, cell-based; settings: Mus musculus, NIH3T3, 96 h
[6] = system: Leishmania donovani; test: GSK_TCAKS: pIC50 Leishmania donovani Imaging: Infected Macrophages. Assay plates (384-well) were prepared by adding 250nL of compound to each well. For single shot assay, the final compound concentration was 5 uM. […] Automated image analysis was performed with a script developed on Acapella High Content Imaging and Analysis Software (PerkinElmer). Output: Percent of infected macrophage cells were reported for each well.; assay type: functional, organism-based, Homo sapiens; settings: THP-1
[7] = system: Trypanosoma cruzi; test: GSK_TCAKS: pIC50 Trypanosoma cruzi viability assay using beta-GAL activity. This assay was run at single shot at 5uM compound concentration per well. The biological reagents consisted of NIH-3T3 host cells and trypomastigotes parasitic cells; both cell types were set to a 3.3 * 10^5 cells/mL dilution in assay DMEM by means of a CASY cell counter device using a 60um capillary. 6 uL of the mixture were dispensed per well (about 1 * 10^3 host-cells and 1 * 10^3 parasites) with a Multidrop Combi dispenser. […] In all wells, the percentage of DMSO never exceeded 0.5%. Plates incubated for four days at 37C, 5% CO2. The substrate used for the assay fluorescence intensity (FLINT) readout was resorufin-beta-D-galactopiranoside (Sigma-Aldrich) at 5uM per well. It was diluted in PBS supplemented with the soft detergent Igepal (Fluka).; assay type: functional, organism-based, Mus musculus; settings: Tulahuen, NIH3T3
[8] = system: Trypanosoma cruzi; test: GSK_TCAKS: pIC50 Trypanosoma cruzi Imaging: Amastigotes/Cell. […] Cells were then washed once with PBS before infection. T. cruzi trypomastigotes, collected at days 5 to 8 after infection from LLC-MK2 parasite infected cultures, were allowed to swim out for 4h at 37C from a centrifuged pellet (2,500 rpm/10 min/room temperature). Trypomastigotes were then collected and counted in a CASY Cell Counter. Trypomastigotes, in supplemented DMEM, were added to H9c2 cultures in a multiplicity of infection of 1 and incubated for 18 h. Cells were washed once with PBS before incubation of the infected H9c2 monolayer with trypsin (Life-Technologies) to detach cells from the flask. Cells were counted in a CASY Cell Counter using a 150 um capillary and their density set at 5 * 10^4 cells per mL in supplemented assay DMEM. Infected H9c2 were dispensed into 384-well poly-lysine coated assay plates at 50uL per well using a Multidrop Combi dispenser. After seeding them, the plates were incubated at 37C, 5% CO2 for 72h. Cultures were then fixed and stained by addition of 50 uL of a solution containing 8% formaldehyde and 4 uM DRAQ5 DNA dye (BioStatus, UK) per well. […] Five images were collected per well for reliable statistical analysis. Automated image analysis was performed with a script developed on Acapella High Content Imaging and Analysis Software (PerkinElmer). Output: number of amastigotes per cell as infection level measurement.; assay type: functional, organism-based, Rattus norvegicus; settings: H9c2, 4 h
[9] = system: Trypanosoma cruzi; test: (§1) GSK_TCAKS: pIC50 Trypanosoma cruzi Imaging: Infected Cells. […] Cells were then washed once with PBS before infection. T. cruzi trypomastigotes, collected at days 5 to 8 after infection from LLC-MK2 parasite infected cultures, were allowed to swim out for 4h at 37C from a centrifuged pellet (2,500 rpm/10 min/room temperature). Trypomastigotes were then collected and counted in a CASY Cell Counter. Trypomastigotes, in supplemented DMEM, were added to H9c2 cultures in a multiplicity of infection of 1 and incubated for 18 h. Cells were washed once with PBS before incubation of the infected H9c2 monolayer with trypsin (Life-Technologies) to detach cells from the flask. Cells were counted in a CASY Cell Counter using a 150 um capillary and their density set at 5 * 10^4 cells per mL in supplemented assay DMEM. Infected H9c2 were dispensed into 384-well poly-lysine coated assay plates at 50uL per well using a Multidrop Combi dispenser. After seeding them, the plates were incubated at 37C, 5% CO2 for 72h. Cultures were then fixed and stained by addition of 50 uL of a solution containing 8% formaldehyde and 4 uM DRAQ5 DNA dye (BioStatus, UK) per well. […] Five images were collected per well for reliable statistical analysis. Automated image analysis was performed with a script developed on Acapella High Content Imaging and Analysis Software (PerkinElmer). Output: percentage of infected cells per well as a second infection marker.; assay type: functional, organism-based, Rattus norvegicus; settings: H9c2, 4 h
[10] = system: Trypanosoma brucei brucei; test: GSK_TCAKS: pIC50 Trypanosoma brucei viability assay using luminiscence. Assay plates (1536-well) were prepared. T. brucei cultures were harvested and counted in a CASY cell counter. A parasite suspension was prepared at a final concentration of 5 * 10^4 cells/mL in complete HMI9 medium and 6uL was dispensed to all wells containing compounds using a Multidrop Combi dispenser. 6uL of HMI9 media with 0.4% DMSO were dispensed to control columns. Plates were incubated for 24 h at 37C, 5% CO2 then tempered for 10 min at room temperature. ATP content was quantified by adding 4 uL of CellTiter-Glo Reagent (Promega) according to the manufacturer's instructions. Luminescence was measured using a ViewLux.; assay type: functional, organism-based; settings: Lister 427, CASY
[11] = system: Trypanosoma cruzi; test: as §1, with “H2C9” for “Trypanosoma cruzi”, “H9c2 Host Cardiomyocytes.” for “Infected Cells.”, “Number” for “percentage”, “H9c2 Host Cardiomyocytes nuclei to determine drug-related cytotoxicity.” for “infected cells per well as a second infection marker.”; assay type: functional, organism-based, Rattus norvegicus; settings: H9c2, 4 h
[12] = biological target: Sterol 14-alpha demethylase (Trypanosoma cruzi (strain CL Brener), UniProt Q7Z1V1); test: GSK_TCAKS: pIC50 CYP51 from Trypanosoma cruzi.; assay type: functional
[13] = system: Leishmania donovani; test: GSK_TCAKS: pIC50 Leishmania donovani Imaging: Amastigotes/Macrophages. Assay plates (384-well) were prepared by adding 250nL of compound to each well. For single shot assay, the final compound concentration was 5 uM. […] Automated image analysis was performed with a script developed on Acapella High Content Imaging and Analysis Software (PerkinElmer). Output: Average number of amastigotes per macrophage cell were reported for each well.; assay type: functional, organism-based, Homo sapiens; settings: THP-1

Chain of Sterol 14-alpha demethylase (Q7Z1V1 whole entry): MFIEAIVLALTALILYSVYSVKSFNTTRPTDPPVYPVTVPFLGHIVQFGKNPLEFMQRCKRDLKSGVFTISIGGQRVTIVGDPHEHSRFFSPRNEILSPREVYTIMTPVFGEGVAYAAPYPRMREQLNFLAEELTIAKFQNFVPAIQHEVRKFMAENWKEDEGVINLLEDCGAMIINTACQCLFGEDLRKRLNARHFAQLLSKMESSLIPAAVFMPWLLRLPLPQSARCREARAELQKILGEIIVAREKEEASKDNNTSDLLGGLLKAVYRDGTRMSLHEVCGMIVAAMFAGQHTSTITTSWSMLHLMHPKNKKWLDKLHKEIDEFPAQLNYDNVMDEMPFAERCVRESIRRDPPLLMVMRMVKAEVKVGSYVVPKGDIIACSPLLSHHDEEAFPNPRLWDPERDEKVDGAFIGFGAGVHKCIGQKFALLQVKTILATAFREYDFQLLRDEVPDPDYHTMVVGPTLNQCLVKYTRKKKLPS

| Structure (SMILES) | IC50 [1] [µM] | IC50 at 48 h [2] [µM] | IC50 [3] [µM] | IC50 [4] [µM] | IC50 [5] [µM] | IC50 [6] [µM] | IC50 [7] [µM] | IC50 [8] [µM] | IC50 [9] [µM] | IC50 [10] [µM] | IC50 [11] [µM] | IC50 [12] [µM] | IC50 [13] [µM] |
| --- | --- | --- | --- | --- | --- | --- | --- | --- | --- | --- | --- | --- | --- |
| CN(C)CCN(C)Cc1ccc(F)cc1NS(=O)(=O)c1ccc(Cl)c(Cl)c1 | 31.6 | 39.8 | 7.94 | 5.01 | 15.8 | 7.94 | 1.58 | 2 | 2.51 | 5.01 | 6.31 | > 126 | 2.51 |
| CNc1cncc(C2CCCN2C(=O)Cc2coc3cc(C)ccc23)n1 (stereo not given) | > 50.1 | > 100 | 3.16 | > 39.8 | > 50.1 | > 50.1 | 0.158 | 0.2 | 0.2 | > 39.8 | > 50.1 | 0.0251 | 0.794 |
| CCOc1cnn(C)c(=O)c1Nc1ccc(C(=O)NCc2ccc(F)cc2)cc1 | 31.6 | > 100 | 31.6 | > 39.8 | > 50.1 | > 50.1 | 0.251 | 0.126 | 0.1 | > 39.8 | > 50.1 | 3.98 | > 50.1 |
| Cc1nn(C2CCS(=O)(=O)C2)c(C)c1CN(C)C(=O)C=Cc1sc2ccccc2c1Cl (stereo not given) | 20 | > 100 | 12.6 | 10 | > 50.1 | 39.8 | 0.631 | 0.316 | 0.501 | 25.1 | > 50.1 | 0.0316 | 12.6 |
| CC(C)(C)C(O)(CCc1ccc(Cl)cc1)Cn1cncn1 (stereo not given) [TEBUCONAZOLE] | > 50.1 | > 100 | 3.16 | > 39.8 | > 50.1 | > 50.1 | 0.126 | 0.2 | 0.251 | > 39.8 | > 50.1 | 0.126 | > 50.1 |
| CN(Cc1ccc(F)cc1)c1ccc(OCC(=O)N2CCCCC2c2cccnc2)nn1 (stereo not given) | 31.6 | > 100 | 15.8 | > 39.8 | 10 | > 50.1 | 0.316 | 0.398 | 0.398 | > 39.8 | > 50.1 | 0.0501 | > 50.1 |
| CN(Cc1cc2ccccc2s1)c1ncc2c(N)nc(N)nc2n1 | 25.1 | 39.8 | 31.6 | 31.6 | 25.1 | 31.6 | 2 | 0.794 | 3.16 | 25.1 | 20 | > 100 | 25.1 |
| Cc1cccnc1CN1CCN(CCCOc2ccc(-c3ccc(C(N)=O)cc3)cc2)CC1 | 12.6 | > 100 | > 50.1 | 10 | 6.31 | 31.6 | 0.631 | 0.398 | 20 | > 39.8 | > 50.1 | > 100 | 10 |
| Cc1cc(C)c(C#N)c(SCC(=O)c2ccc3c(c2)OCO3)n1 | > 50.1 | > 100 | > 50.1 | 20 | > 50.1 | > 50.1 | 2 | 0.398 | 0.794 | 15.8 | > 50.1 | > 100 | > 50.1 |
| COc1cc(-c2nc(N3CCOCC3)sc2-c2ccnc(NC3CCOCC3)n2)ccc1Cl | > 50.1 | > 100 | > 50.1 | 15.8 | > 50.1 | > 50.1 | 0.251 | 0.1 | 0.158 | > 39.8 | > 50.1 | > 100 | 0.02 |
